According to US20160374370A1, “BEVERAGE COMPRISING FERROUS PICOLINATE” (NESTEC S.A., priority 2013, published 2016):

Assay: Colour change in iron fortified strawberry fermented milk beverages (CIELAB colorimetry)
Assay type: physicochemical
Details: for ΔEab* on addition / ΔEab* after heat treatment: colour difference vs beverage with no iron salts, approx. 2.1 mg iron per 100 g; for ΔEab* on addition: fermented milk beverage containing 2.1% strawberry, stirred under argon 20 minutes; for ΔEab* after heat treatment: heat treated at 95° C. for 2 minutes, 2.1% strawberry fermented milk beverage
Method: Ferrous picolinate was prepared according to the procedure of U.S. Pat. No. 4,315,927 Example 3. A fermented milk beverage containing 2.1% strawberry was iron fortified by the addition of ferrous sulphate (Dr Paul Lohmann™) (Sample A) or ferrous picolinate (Sample B). The amount of the ferrous salts were chosen to provide approximately 2.1 mg iron per 100 g fermented milk beverage. Each ferrous salt was added to the fermented milk beverage and stirred under argon for 20 minutes. A further sample without iron fortification was also prepared in the same manner. Colour measurements were performed in 1×1 cm polystyrene cuvettes using an X-Rite ColorEye 7000A colorimeter. The colorimeter was set up with a D65 light source, 10 degree observer angle and with specular component included. The colour difference between the beverage with no iron salts and the iron fortified beverages was measured for each ferrous salt and expressed as ΔEab* using the CIELAB colour scale.
The fermented milks were then heat treated at 95° C. for 2 minutes. Colour measurements were performed in the same manner as before. The colour difference between the beverage with no iron salts and the iron fortified beverages was measured for each ferrous salt and expressed as ΔEab* using the CIELAB colour scale.

| Molecule | ΔEab* on addition | ΔEab* after heat treatment | colour compared with the beverage with no added iron (both after simple addition of the salts and after heat treatment, compared with ferrous sulphate) |
| --- | --- | --- | --- |
| O=S(=O)([O-])[O-].[Fe+2] [FeSO4 × H20, ferrous sulphate, reference compound] | 0.84 | 2.80 |  |
| ferrous picolinate | 0.36 | 1.66 | closer in colour to the beverage with no added iron than the beverage fortified with ferrous sulphate |
